Some test systems named below: UACC-62 melanoma; SW-620 colon; HT29 colon; 786-0 renal; M14 melanoma; OVCAR-4 ovarian; COLO 205 colon; ACHN renal; KM12 colon; HL-60(TB) leukemia.
Common to all, as to experiment: NCI anticancer screen, dose series, 48 h

Each structure is given as a SMILES string.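 Test compounds were applied to cells in 96-well plates for 48 hours at 5 doses. Here, GI50 denotes the concentration required for 50% inhibition of growth. TGI marks complete inhibition of growth.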 Bounds are passed on as bounds.

On to `COc1cc2c(c3oc(-c4ccc(O)cc4)c(O)c(=O)c13)CCC(C)(C)O2`, for which the GI50 in the experiment on UACC-62 melanoma is 0.199 µM; with SW-620 colon, 0.0872 µM; in the experiment with HT29 colon it was 3.12 µM; in the experiment on 786-0 renal, 0.0788 µM; with M14 melanoma it was 0.212 µM; with OVCAR-4 ovarian, 0.9 µM. Besides, the results for the GI50 in the experiment with COLO 205 colon, in the experiment with ACHN renal and with KM12 colon were 2.18 µM, 0.145 µM and 0.384 µM, respectively. Further, the TGI with UACC-62 melanoma is 0.616 µM; in the experiment with SW-620 colon it was 0.31 µM; in the experiment on HT29 colon, 10.9 µM; in the experiment on 786-0 renal it was 0.214 µM; in the experiment on M14 melanoma, 0.523 µM; in the experiment on OVCAR-4 ovarian, 2.88 µM. Further, the TGI in the experiment with COLO 205 colon worked out at 5.02 µM; in the experiment with KM12 colon, 23.4 µM.
Take `Cn1cc(C2NC(=O)c3ccccc3N2)c2ccccc21` (configuration not stated): the TGI in the experiment on SW-620 colon is above 100 µM; with HT29 colon, 0.86 µM; in the experiment on 786-0 renal, above 100 µM; with M14 melanoma, above 65.8 µM; in the experiment on OVCAR-4 ovarian it was 58.4 µM; in the experiment with ACHN renal it was above 92.8 µM. Also, the TGI was 26.9 µM with KM12 colon and 0.485 µM in the experiment on HL-60(TB) leukemia.
As for `COC(=O)C(=O)C(C(=O)C(=O)Nc1ccc(Cl)c(Cl)c1)c1nc2ccc(C(=O)c3ccccc3)cc2[nH]c1=O` (configuration not stated), the TGI in the experiment with UACC-62 melanoma, in the experiment with SW-620 colon, with HT29 colon, in the experiment on 786-0 renal, in the experiment on M14 melanoma and in the experiment on ACHN renal was above 100 µM in each case. The TGI with KM12 colon and with HL-60(TB) leukemia was above 100 µM each time.
Regarding `CC(C)(CN1CCCCC1)C(=O)/C=C/c1ccccc1`, the TGI in the experiment with UACC-62 melanoma is 53.2 µM; in the experiment on SW-620 colon it was 27.8 µM; with HT29 colon, 36.4 µM; with 786-0 renal, 27.3 µM; with M14 melanoma, 34.7 µM; in the experiment on OVCAR-4 ovarian, 73.9 µM. Also, the TGI in the experiment on COLO 205 colon turned out to be 40.9 µM; with ACHN renal, 96.6 µM; in the experiment with KM12 colon it was 28.9 µM.
In the case of `NS(=O)(=O)c1ccc(N(/C=C/C(=O)C(F)(F)F)CC(=O)c2ccc(F)cc2)cc1`, the GI50 was 17.6 µM in the experiment with UACC-62 melanoma; 21.5 µM in the experiment on SW-620 colon; 35.2 µM in the experiment on HT29 colon; 44.7 µM in the experiment with 786-0 renal; 57.1 µM with OVCAR-4 ovarian; 20.5 µM in the experiment on COLO 205 colon. Also, the GI50 was 21.3 µM in the experiment with ACHN renal and 24.5 µM with KM12 colon. The TGI with UACC-62 melanoma is 31.9 µM; in the experiment with SW-620 colon, 46.6 µM; with HT29 colon, above 100 µM; in the experiment with 786-0 renal it was above 100 µM; in the experiment with OVCAR-4 ovarian it was above 100 µM; in the experiment with COLO 205 colon, 41.6 µM. In addition, the TGI with ACHN renal is 67.1 µM; in the experiment with KM12 colon, 57.9 µM.
As to `Cc1ccc(S(=O)c2ccccc2[N+](=O)[O-])cc1` (configuration not stated), the TGI in the experiment on UACC-62 melanoma, with SW-620 colon, in the experiment with HT29 colon, with 786-0 renal, in the experiment on M14 melanoma and in the experiment on OVCAR-4 ovarian was above 100 µM in each case. Besides, the TGI with ACHN renal, in the experiment on KM12 colon and in the experiment with HL-60(TB) leukemia was above 100 µM each time.
`O=C(N/N=C/c1ccc(Cl)cc1)c1ccc(NC(=O)c2ccccn2)cc1`: the GI50 was 24.5 µM in the experiment with UACC-62 melanoma; 59 µM with SW-620 colon; above 100 µM in the experiment with HT29 colon; 20.7 µM in the experiment on 786-0 renal; 56.8 µM with M14 melanoma; 3.07 µM in the experiment with OVCAR-4 ovarian. The values for the GI50 in the experiment on COLO 205 colon, in the experiment with ACHN renal and in the experiment with KM12 colon were above 100 µM, 19.1 µM and 31 µM, respectively. The TGI in the experiment on UACC-62 melanoma is above 100 µM; in the experiment with SW-620 colon it was above 100 µM; with HT29 colon, above 100 µM; in the experiment on 786-0 renal, 59.6 µM; with M14 melanoma it was above 100 µM; in the experiment with OVCAR-4 ovarian, 10.6 µM. The TGI in the experiment with COLO 205 colon is above 100 µM; in the experiment on ACHN renal, 59.3 µM; in the experiment on KM12 colon it was above 100 µM.
In the case of `NC(N)NCCCc1cn2c(n1)C1CCCN1C(=O)C2Cc1ccccc1` (configuration not stated), the TGI with UACC-62 melanoma, in the experiment on SW-620 colon, with HT29 colon, in the experiment with 786-0 renal, in the experiment on M14 melanoma and in the experiment with OVCAR-4 ovarian was above 100 µM each time. Besides, the TGI with COLO 205 colon, in the experiment on ACHN renal and in the experiment with KM12 colon was above 100 µM each time.
`COc1ccc(C2=NN(C(N)=S)C(c3ccc4c(c3)OCO4)C2)cc1` (configuration not stated): the GI50 in the experiment with UACC-62 melanoma was 3.79 µM; in the experiment with SW-620 colon it was 2.29 µM; with HT29 colon it was 3.13 µM; in the experiment on 786-0 renal it was 3.8 µM; with M14 melanoma, 3.77 µM; with OVCAR-4 ovarian, 3.4 µM. For the same compound, the values for the GI50 in the experiment with COLO 205 colon, in the experiment on ACHN renal and in the experiment on KM12 colon were 3.39 µM, 3.58 µM and 2.27 µM, respectively. Besides, the TGI in the experiment on UACC-62 melanoma is 21.1 µM; in the experiment with SW-620 colon it was 5.92 µM; in the experiment on HT29 colon, above 100 µM; with 786-0 renal, above 100 µM; with M14 melanoma it was 35.4 µM; in the experiment on OVCAR-4 ovarian, above 100 µM. Besides, the TGI in the experiment on COLO 205 colon is 11.5 µM; with ACHN renal, above 100 µM; in the experiment with KM12 colon it was 5.19 µM.

The values are drawn from PubChem BioAssay (NCI).
